Patent US20020132845A1, “Compositions and methods for the prevention and treatment of tissue ischemia” (priority 2000, published 2002)
Entries after “also recorded” stand apart in the source; their conditions may differ.

Columns and labels:
[1] = system: transient focal cerebral ischemia induced by Middle Cerebral Artery Occlusion (MCAO); assay: Animal cerebral infarct assay: two-hour Middle Cerebral Artery Occlusion (MCAO) with reperfusion; type: in vivo, rat; conditions: for total ischemic damage relative to control animals: I.V. at the time of MCAO; for total infarct volume relative to control animals: administered (I.V.) at the time of MCAO; for reduction of infarct volume: administered at reperfusion; for tissue edema relative to controls / total infarct volume relative to controls / total ischemic damage relative to controls: administered at the time of reperfusion; for edema relative to control animals: at the time of MCAO
Text: This assay is used to assess the efficacy of the test agents in protecting the brain against necrosis following cerebral ischemia induced in rats. Middle Cerebral Artery Occlusion (MCAO) is a widely used technique to induce transient focal cerebral ischemia in animal models. […] Furthermore, this model accurately represents the involvement of middle cerebral artery (MCA), the most affected vessel in human stroke, and also allows reperfusion as it happens in humans. MCAO by a two-hour occlusion is used to produce the maximum size of cortical infarction without increased mortality at twenty-four hours. Male Wistar rats (Hadan, Ind.) weighing 300-350 g were allowed free access to water and commercial rodent diet under standard laboratory conditions. The room temperature was maintained at 20-23° C. and room illumination was on a 12/12-hour light/dark cycle. The rats were acclimatized to the laboratory environment 5 to 7 days prior to the study. Before surgery, the animals were fasted overnight, but had free access to water. The rats were anesthetized with 3.0% isoflurane (Aerrane, Front Dodge, Iowa) in […] and the animal's neck was shaved and sterilized before the operation. The animals were subjected to two hours MCAO using a modified intraluminal filament technique. A midline incision on the ventral part of the neck was made to expose external and internal carotid arteries. The right external and common carotid arteries were ligated by a suture (silk 5/0, Carlisle Laboratories, Farmers Branch, Tex.) and the right internal artery was temporarily ligated by a microvascular clip (Fine Science Tool Inc., Foster City, Calif.). A small incision was made in the common carotid artery and a nylon filament, its tip rounded by heating, prepared from a fishing line (Stren Fishing Lines, Wilmington, Del.) was inserted from the right common carotid artery. The filament was advanced into the internal carotid artery 18-20 mm from the point of bifurcation of internal and external arteries and a suture was tightly ligated around the filament. Two hours post occlusion, the animals were re-anesthetized to allow reperfusion for the remaining of the experiment by removal of the filament. The anesthetized animal were placed on a stereotaxic apparatus (Harvard Apparatus, S. Natick, Mass.). Anesthesia was maintained by inhalation of 3.0% isoflurane in […] throughout the entire procedure. The scalp was shaved and sterilized prior to surgery. A midline sagittal incision about 3 cm long was made slightly behind the eyes to expose the skull. The skull was scraped with a rounded end spatula to remove periosteal connective tissue. A bur hole was placed 1.5 mm lateral, 1 mm posterior to the left of the bregma to mark the left lateral ventricle. A brain infusion cannula (ALZET CO. Palo Alto, Calif.) was inserted 4 mm deep into the hole. The desired depth was adjusted by attaching spacers to the cannula. The cannula was attached to a 4-cm silastic catheter (Helix Medical Inc.) fixed in place with dental cement (Ketac-cement, Norristown, Pa.). The catheter was either attached to a primed osmotic pump placed subcutaneously between the shoulder blades for permanent infusion or to a syringe for a short infusion. Anesthesia was maintained by inhalation of 3.0% isoflurane in […] throughout the entire procedure. The exterior site of the right femoral vein was shaved and sterilized prior to surgery. A 3 cm incision was made in the right groin region and the femoral vein was isolated. A small incision was made on the femoral vein temporarily ligated with a microvascular clip to introduce and advance a polyethylene (PE-50) catheter (Becton. Dickinson and Co., Sparks, Md.). The catheter was secured in place with suture (silk 5/0, Carlisle Laboratories, Farmers Branch, Tex.). The other end of the catheter was attached to a syringe filled with the heparinized saline for the bolus injection. […]

[2] = system: congestive heart failure (CHF); assay: Model of congestive heart failure: permanent ligation of the left coronary artery (Example 6); type: in vivo, rat; conditions: after permanent ligation of the left coronary artery
[3] = Experiments performed in support of the invention: synergy of hesperetin with tocopherols (test not specified)
[4] = listed as gamma-tocopherol metabolite enriched composition
[5] = oral gavage pre-MCAO, dose not given
[6] = oral gavage pre-MCAO (3 hours), 10 mg/kg
[7] = listed as gamma-tocopherol enriched composition
[8] = listed as gamma-tocopherol enriched tocopherol composition

## Cc1c(O)cc2c(c1C)OC(C)(CCC(=O)O)CC2 (stereo not shown) [gamma-CEHC, 6-hydroxy-2,7,8-trimethylchroman-2-propanoic acid]
[1]
  total ischemic damage relative to control animals: significantly reduced
  total infarct volume relative to control animals: reduce total infarct size; also recorded: significantly reduced
  tissue edema relative to controls: reduction
  total infarct volume relative to controls: reduce total infarct size
  total ischemic damage relative to controls: reduction
  edema relative to control animals: reduced tissue edema
[1]; IV at MCAO, drug range 0.1-5 mg/kg
  decrease of neuronal damage: 50-65%
[1]; [4]
  total infarct volume relative to control animals: reduce total infarct
  total infarct volume relative to controls: reduction; also recorded: reduce total infarct
[1]; 10 mg/kg
  reduction of infarct volume: 52%

## Cc1c(C)c2c(c(C)c1O)CC[C@@](C)(CCC[C@H](C)CCC[C@H](C)CCCC(C)C)O2 (relative stereo) [alpha-tocopherol, [2R-2R*(4R*,8R*)]-3,4-dihydro-2,5,7,8-tetramethyl-2-(4,8,12-trimethyltridecyl)-2H-1-benzopyran-6-ol, reference compound]
[1]; 6 mg/kg at MCAO (IV)
  reduction of infarct size: 42%
[1]; [5]
  reduction of infarct size: 43%

## C[C@H](CS)C(=O)N1CCC[C@H]1C(=O)O [captopril, 1-[(2S)-3-mercapto-2-methylpropionyl]-L-proline]
[2]
  heart weight: reduced heart weight
  left ventricular systolic pressure (LVSP): reduced LVSP

## COc1ccc([C@@H]2CC(=O)c3c(O)cc(O)cc3O2)cc1O [hesperetin, (S)-2,3-dihydro-5,7-dihydroxy-2-(3-hydroxy-4-methoxyphenyl)-4H-1benzopyran-4-one]
[3]
  synergy with gamma-tocopherol and delta-tocopherol: act synergistically

## Cc1cc(O)c(C)c2c1OC(C)(CCCC(C)CCCC(C)CCCC(C)C)CC2 (stereo not drawn) [beta-tocopherol, 3,4-dihydro-2,5,8-trimethyl-2-(4,8,12-trimethyltridecyl)-2H-1-benzopyran-6-ol]
[1]; gavage, three hours pre-MCAO
  total infarct size: reduce total infarct size
[1]; [6]
  reduction of infarct size: 76%

## Cc1c(O)cc2c(c1C)OC(C)(CCCC(C)CCCC(C)CCCC(C)C)CC2 (stereo not shown) [gamma-tocopherol, 3,4-dihydro-2,7,8-trimethyl-2-(4,8,12-trimethyltridecyl)-2H-1-benzyopyran-6-ol]
[1]; 6 mg/kg at MCAO (IV)
  reduction of infarct size: 82%
[1]
  total ischemic damage relative to control animals: significantly reduced
  tissue edema relative to controls: reduction
  total ischemic damage relative to controls: reduction
  edema relative to control animals: significantly reduced
[1]; IV, 0.6 mg/kg, at MCAO
  reduction of infarct size: 81%
[1]; [7]
  total infarct volume relative to control animals: reduce total infarct size
  total infarct volume relative to controls: reduce total infarct size; also recorded: reduction
[1]; [8]
  total infarct volume relative to control animals: significantly reduced; also recorded: reduce total infarct
  total infarct volume relative to controls: reduce total infarct
[1]; 10 mg/kg
  reduction of infarct volume: 70%
[1]; at the same concentration
  reduction of tissue edema compared with alpha- or delta-tocopherol: more effective
  reduction of total infarct volume compared with alpha- or delta-tocopherol: more effective
[1]; intraperitoneal, 10-20 mg/kg, at MCAO or 3 hours post-reperfusion
  mean reduction of infarct volumes: 20-57%
[1]; oral gavage 3 hours pre-MCAO, 4 mg/kg
  reduction of infarct size / infarct volume: 53%
[1]; [6]
  reduction of infarct size: 77%

## Cc1cc(O)cc2c1O[C@](C)(CCC[C@H](C)CCC[C@H](C)CCCC(C)C)CC2 (relative stereo) [delta-tocopherol, [2R-[2R*(4R*,8R*)]]-3,4-dihydro-2,8-dimethyl-2-(4,8,12-trimethyltridecyl)-2H-1-benzo-pyran-6-ol]
[1]; IV, 0.60 mg/kg
  reduction of infarct size: 52%
[1]
  total infarct volume relative to control animals: reduce total infarct size
[1]; [5]
  reduction of infarct size: 48%
[1]; rat, in vivo
  reduction of total infarct volume compared with alpha-tocopherol: more effective
